Experimental data published in patent publication US20240148895A1, “ANTIBODY-DRUG CONJUGATE” (Eisai R&D Management Co., Ltd., priority 2022, published 2024).

How the values were obtained:
[1] = biological target: T1, BRD4(BD1+BD2) protein (Homo sapiens, UniProt O60885); assay: BRD4 binding inhibition assay (TR-FRET); conditions: BRD4(BD1+BD2) TR-FRET Assay Kit, reaction 2 hours at room temperature; read-out: IC50 (concentration necessary for 50% inhibition of BRD4 binding activity)
T1 construct: 5 μL of BRD4(BD1+BD2) protein solution prepared to 3.6 ng/μL; purchased BPS Bioscience Inc. 32612
Procedure: This assay measures binding inhibition activity of the test substance on the bromodomain of BRD4 protein.
BRD4 binding inhibition activity assay was carried out using a BRD4(BD1+BD2)TR-FRET Assay Kit (BPS Bioscience Inc. Catalog #32612), according to the attached instructions. In a flat-bottom 384-well white plate (Greiner 781080) there was added 8 μL of Tb-labeled donor/dye-labeled acceptor solution diluted 160-fold with 1×BRD TR-FRET Assay Buffer1, with 5 μL of BET Bromodomain Ligand diluted 40-fold with 1×BRD TR-FRET Assay Buffer1 in the test substance measuring wells and the Positive Control wells, and 5 μL of Non-acetylated Ligand1 diluted 40-fold with 1×BRD TR-FRET Assay Buffer1 in the Negative Control wells. After adding 2 μL of test substance diluted with 1×BRD TR-FRET Assay Buffer1 to the test substance measuring wells, and 2 μL of Dimethyl Sulfoxide solution diluted 100-fold with 1×BRD TR-FRET Assay Buffer1 to the Positive Control wells and Negative Control wells, 5 μL of BRD4(BD1+BD2) protein solution prepared to 3.6 ng/μL with 1×BRD TR-FRET Assay Buffer1 was added and reaction was conducted for 2 hours at room temperature. The fluorescence intensity was measured at 620 nm and 665 nm with irradiation of 340 nm excitation light into each well, using an Envision™ (Perkin-Elmer). The ratio of fluorescence intensity at […] with respect to fluorescence intensity at 620 nm for each well was recorded as the TR-FRET ratio, and the TR-FRET ratio in the presence of the test substance was calculated with the Positive Control well value as 100%, subtracting the Negative Control well value. The concentration of test substance necessary for 50% inhibition of BRD4 binding activity (IC50) was calculated from the TR-FRET ratio, and shown in Table 1.

[2] = system: AsPC-1/Cas9 cell line (human pancreatic cancer cell line AsPC-1); assay: AsPC-1/Cas9 growth inhibition assay; type: cell-based; conditions: 5 days culture, CellTiter Glo 2.0, read-out: IC50 (Absolute IC50, 50% inhibition of cell growth)
Procedure: Human pancreatic cancer cell line AsPC-1 (ATCC Number CRL1682) was infected with Edit-R Lentiviral hCMV-Blast-Cas9 Nuclease Particle (Dharmacon, VCAS10124) in the presence of 8 μg/ml of Hexadimethrine bromide (Sigma, H9268), and after 24 hours it was exposed to 10 μg/ml of Blastcidin S (Thermo, A11139) to remove the uninfected cells, thereby establishing an AsPC-1/Cas9 cell line. The cells were maintenance cultured in a 5% CO2 incubator (37° C.) using RPMI-1640 (FujiFilm-Wako Pure Chemical Industries) containing 10% fetal bovine serum (FBS: SIGMA 173012) and penicillin/streptomycin (FujiFilm-Wako Pure Chemical Industries) (hereunder referred to simply as “culture medium”). After adding 25 μL of AsPC-1/Cas9 cell suspension prepared to 3.2×10^4 cells/mL using culture medium into each well of a 384-well plate (Greiner 781091), the cells were cultured overnight in a 5% CO2 incubator (37° C.). On the following day, 25 μL of the test substance diluted with culture medium was added to each well, and culturing was continued for 5 days in a 5% CO2 incubator (37° C.). Next, 25 μL of CellTiter Glo™ 2.0 (Promega) was added to each well, and the plate contents were mixed for 5 minutes using a plate mixer. The plate was stationed for 10 minutes at room temperature while shielded from light, and then the luminous intensity was measured with an ENVISION™ (Perkin-Elmer). The luminescence value of the wells with addition of test substance was determined as a relative value, with 100% as the luminescence value of the wells with cells but without addition of the test substance and 0% as the luminescence value of the wells without cells. A plot of test substance concentration against luminescence value % approximated a 4-parameter logistic curve, and the test substance concentration necessary for 50% inhibition of cell growth (Absolute IC50) was calculated, and is shown in Table 10. In Table 10, the antibodies listed as “CEACAM6_#84.7” are the anti-CEACAM6 antibody of Example 301-1, the antibodies listed as “003” are the anti-folate receptor α antibody of Example 301-2, and the antibodies listed as “345A12” are the anti-mesothelin antibody of Example 301-3.
According the same method as in the AsPC-1/Cas9 growth inhibition assay described in Example 313 above, the test substance concentration necessary for 50% inhibition of cell growth (Absolute IC50) in the ADC described in Example 318 was calculated and is shown in Table 12.

Structure (SMILES) | IC50 [1] [nM] | IC50 [2] [nM]
COc1cc(=O)n(C)cc1-c1ccc2nc(N)nc(C(CO)(CC3CC3)c3cccnc3)c2c1 (stereo not drawn) [Example 25, 5-(2-Amino-4-(1-cyclopropyl-3-hydroxy-2-(pyridin-3-yl)propan-2-yl)quinazolin-6-yl)-4-methoxy-1-methylpyridin-2(1H)-one] | 130 | 0.057
C#CC1CCN(c2nc(C(CO)(OC3CC3)c3ccccc3)c3cc(-c4cn(C)c(=O)c5[nH]ccc45)ccc3n2)CC1 (stereo not drawn) [Example 26, 4-(4-(1-Cyclopropoxy-2-hydroxy-1-phenylethyl)-2-(4-ethynylpiperidin-1-yl)quinazolin-6-yl)-6-methyl-1,6-dihydro-7H-pyrrolo[2,3-c]pyridin-7-one] | 47 | 0.032
Cn1cc(-c2ccc3nc(N4CCC(N5CCC(C)(N)CC5)CC4)nc(C(CO)(OC4CC4)c4ccccc4)c3c2)c2cc[nH]c2c1=O (stereo not drawn) [Example 27, 4-(2-(4-Amino-4-methyl-[1,4′-bipiperidin]-1′-yl)-4-(1-cyclopropoxy-2-hydroxy-1-phenylethyl)quinazolin-6-yl)-6-methyl-1,6-dihydro-7H-pyrrolo[2,3-c]pyridin-7-one] | 80 | –
C[C@@H]1CN(CC2CCN(c3nc(C(CN)(OC4CC4)c4ccccc4)c4cc(-c5cn(C)c(=O)c6[nH]ccc56)ccc4n3)CC2)[C@@H](C)CN1 (stereo partly drawn) [Example 28, 4-(4-(2-Amino-1-cyclopropoxy-1-phenylethyl)-2-(4-(((2S,5R)-2,5-dimethylpiperazin-1-yl)methyl)piperidin-1-yl)quinazolin-6-yl)-6-methyl-1,6-dihydro-7H-pyrrolo[2,3-c]pyridin-7-one] | 82 | 0.023
C#CCNC1(C)CCN(C2CCN(c3nc(C(CO)(OC4CC4)c4ccccc4)c4cc(-c5cn(C)c(=O)c6[nH]ccc56)ccc4n3)CC2)CC1 (stereo not drawn) [Example 29, 4-(4-(1-Cyclopropoxy-2-hydroxy-1-phenylethyl)-2-(4-methyl-4-(prop-2-yn-1-ylamino)-[1,4′-bipiperidin]-1′-yl)quinazolin-6-yl)-6-methyl-1,6-dihydro-7H-pyrrolo[2,3-c]pyridin-7-one] | 57 | 0.041
C#CC1(O)CCN(C2CCN(c3nc(C(CO)(OC4CC4)c4ccccc4)c4cc(-c5cn(C)c(=O)c6[nH]ccc56)ccc4n3)CC2)CC1 (stereo not drawn) [Example 30] | 27 | < 0.015
C[C@@H]1CN(C2CCN(c3nc(C(CN)(OC4CC4)c4ccccc4)c4cc(-c5cn(C)c(=O)c6[nH]ccc56)ccc4n3)CC2)[C@@H](C)CN1 (stereo partly drawn) [Example 31] | 61 | 0.037
CCCC(CO)(CCC)c1nc(N2CCC(CN3CCNCC3)CC2)nc2ccc(-c3cn(C)c(=O)cc3OC)cc12 [Example 32, 5-(4-(4-(Hydroxymethyl)heptan-4-yl)-2-(4-(piperazin-1-ylmethyl)piperidin-1-yl)quinazolin-6-yl)-4-methoxy-1-methylpyridin-2(1H)-one] | 81 | –
COc1cc(=O)n(C)cc1-c1ccc2nc(N3CCC(N4CCC(C)(N)CC4)CC3)nc(C(CO)(OC3CC3)c3cccc4ccccc34)c2c1 (stereo not drawn) [Example 33, 5-(2-(4-Amino-4-methyl-[1,4′-bipiperidin]-1′-yl)-4-(1-cyclopropoxy-2-hydroxy-1-(naphthalen-1-yl)ethyl)quinazolin-6-yl)-4-methoxy-1-methylpyridin-2(1H)-one] | 440 | < 0.015
CNCCN(C)C(=O)OCC(OC1CC1)(c1ccccc1)c1nc(N2CCC(CN3C[C@@H](C)NC[C@@H]3C)CC2)nc2ccc(-c3cn(C)c(=O)cc3OC)cc12 (stereo partly drawn) [Example 34, 2-Cyclopropoxy-2-(2-(4-(((2S,5R)-2,5-dimethylpiperazin-1-yl)methyl)piperidin-1-yl)-6-(4-methoxy-1-methyl-6-oxo-1,6-dihydropyridin-3-yl)quinazolin-4-yl)-2-phenylethyl methyl(2-(methylamino)ethyl)carbamate] | 91 | –
Cn1cc(-c2ccc3nc(N4CCC(OC5CCNCC5)CC4)nc(C(CO)(c4ccccc4)c4ccccc4)c3c2)c2ccoc2c1=O [Example 35, 4-(4-(2-Hydroxy-1,1-diphenylethyl)-2-(4-(piperidin-4-yloxy)piperidin-1-yl)quinazolin-6-yl)-6-methylfuro[2,3-c]pyridine-7(6H)-one] | 87 | 0.038
Cc1cc(-c2ccc3nc(N)nc([C@@](CO)(OC4CC4)c4ccccc4)c3c2)cn(C)c1=O [Example 36, (S)-5-(2-Amino-4-(1-cyclopropoxy-2-hydroxy-1-phenylethyl)quinazolin-6-yl)-1,3-dimethylpyridin-2(1H)-one] | 25 | 0.035
